Format in all cases: functional
In assay [1] the test system is Mycolicibacterium smegmatis. As to the kind of experiment: Antibiofilm activity against Mycobacterium smegmatis 700084 assessed as eradication of preformed bacterial biofilm incubated for 24 hrs by crystal violet staining based assay.
Assay [2] deals with Mycolicibacterium smegmatis. Kind of assay: Antibacterial activity of against Mycobacterium smegmatis 700084 assessed as Ac-Kaa-induced neutralization of antibiotic effect by measuring molar excess ratio of smallest concentration of AC-Kaa required to neutralize antibiotic effect to MIC of antibiotic at 16 uM incubated for 48 hrs by resazurin dye based broth microdilution method.

In assay [3] the test system is Mycolicibacterium smegmatis. As to the kind of experiment: Antibacterial activity against Mycobacterium smegmatis 700084 assessed as inhibition of bacterial growth incubated for 48 hrs by resazurin dye based broth microdilution method.
The subject of assay [4] is Mycolicibacterium smegmatis. As to the kind of experiment: Inhibition of biofilm formation in Mycobacterium smegmatis 700084 assessed as reduction in wrinkled pellicle formation incubated for 5 days. The settings on record: time 5 day.
For assay [5], the system named is Corynebacterium glutamicum. Kind of assay: Antibacterial activity of against Corynebacterium glutamicum 13032 assessed as Ac-Kaa-induced neutralization of antibiotic effect by measuring molar excess ratio of smallest concentration of AC-Kaa required to neutralize antibiotic effect to MIC of antibiotic at 0.25 uM incubated for 48 hrs by resazurin dye based broth microdilution method.

The next assay relates to Mycobacterium kansasii. Kind of assay: Antibacterial activity against Mycobacterium kansasii 12478 assessed as inhibition of bacterial growth incubated for 6 to 7 days by resazurin dye based broth microdilution method. The settings on record: time 6-7 day.
For assay [6], the system named is Bacillus subtilis. Kind of assay: Antibacterial activity against Bacillus subtilis 23857 assessed as inhibition of bacterial growth incubated for 18 to 20 hrs by broth microdilution method. The following applies: time 18-20 hrs.
Assay [7] concerns Corynebacterium glutamicum. As to the kind of experiment: Antibacterial activity against Corynebacterium glutamicum 13032 assessed as inhibition of bacterial growth incubated for 18 to 20 hrs by broth microdilution method. The settings on record: time 18-20 hrs.
For assay [8], the system named is Mycobacteroides abscessus. Kind of assay: Synergistic antibacterial activity against Mycobacterium abscessus 19977 assessed as test compound MIC incubated for 72 hrs in presence of 78 uM ethambutol by checkerboard assay.
The subject of assay [9] is Mycobacterium avium. Kind of assay: Antibacterial activity against Mycobacterium avium 25291 assessed as inhibition of bacterial growth incubated for 6 to 7 days by resazurin dye based broth microdilution method. The settings on record: time 6-7 day.
The subject of assay [10] is Mycobacterium avium. As to the kind of experiment: Antibacterial activity against Mycobacterium avium 700898 assessed as inhibition of bacterial growth incubated for 6 to 7 days by resazurin dye based broth microdilution method. The following applies: time 6-7 day.
Assay [11] relates to Mycobacteroides abscessus. Kind of assay: Antibacterial activity against Mycobacterium abscessus 19977 assessed as inhibition of bacterial growth incubated for 72 hrs by resazurin dye based broth microdilution method.
Assay [12] has as its system Mycobacteroides abscessus. As to the kind of experiment: Synergistic antibacterial activity against Mycobacterium abscessus 19977 assessed as fractional inhibitory concentration index incubated for 72 hrs in presence of ethambutol by checkerboard assay.
Assay [13] relates to Mycobacteroides abscessus. As to the kind of experiment: Synergistic antibacterial activity against Mycobacterium abscessus 19977 assessed as test compound MIC incubated for 72 hrs in presence of 39 uM ethambutol by checkerboard assay.
Assay [14] concerns Mycolicibacterium smegmatis. As to the kind of experiment: Inhibition of peptidoglycan biosynthesis in Mycobacterium smegmatis 700084 assessed as increase in N-glycolyl modified precursor UDP-MurNGlyc-pentapeptide accumulation at 10 uM incubated for 4 hrs by RP-HPLC method.
Assay [15] concerns Bacillus subtilis. As to the kind of experiment: Antibacterial activity of against Bacillus subtilis 23857 assessed as Ac-Kaa-induced neutralization of antibiotic effect by measuring molar excess ratio of smallest concentration of AC-Kaa required to neutralize antibiotic effect to MIC of antibiotic at 0.25 uM incubated for 48 hrs by resazurin dye based broth microdilution method.

In assay [16] the test system is Mycolicibacterium smegmatis. As to the kind of experiment: Synergistic antibacterial activity against Mycobacterium smegmatis 700084 assessed as fractional inhibitory concentration index incubated for 48 hrs in presence of ethambutol by checkerboard assay.
Assay [17] has as its system Mycobacteroides abscessus. As to the kind of experiment: Antibacterial activity against Mycobacterium abscessus 19977 assessed as elimination of viable bacteria at 2 times MIC measured after 50 hrs by time kill assay relative to control.

The structures appear in SMILES notation. ≈ marks a conversion by molar mass, not a printed value. Calls of active or inactive are those of the source. The rule behind the calls is not given here.

For `CC[C@@H](CO)NCCN[C@@H](CC)CO` [ETHAMBUTOL], in assay [1], the MBEC was more than 256 µg/mL.
On the same count and under the same terms, the value for `CO[C@H]1/C=C/O[C@@]2(C)Oc3c(C)c(O)c4c(O)c(c(/C=N/N5CCN(C)CC5)c(O)c4c3C2=O)NC(=O)/C(C)=C\C=C\[C@H](C)[C@H](O)[C@@H](C)[C@@H](O)[C@@H](C)[C@H](OC(C)=O)[C@@H]1C` [RIFAMPIN] was 156 µM.
For the compound `CN[C@H](CC(C)C)C(=O)N[C@H]1C(=O)N[C@@H](CC(N)=O)C(=O)N[C@H]2C(=O)N[C@H]3C(=O)N[C@H](C(=O)N[C@H](C(=O)O)c4cc(O)cc(O)c4-c4cc3ccc4O)[C@H](O)c3ccc(c(Cl)c3)Oc3cc2cc(c3O[C@@H]2O[C@H](CO)[C@@H](O)[C@H](O)[C@H]2O[C@H]2C[C@](C)(N)[C@H](O)[C@H](C)O2)Oc2ccc(cc2Cl)[C@H]1O` [VANCOMYCIN], the figures for the Ratio (in [2]; in [5]; in the assay with Bacillus subtilis [15]) were 3.9, 62.5 and 15.6, respectively. In addition, the MIC was 8 µM (≈ 11.6 µg/mL) in [3]; 24 µM (≈ 34.8 µg/mL) in the assay with Mycobacterium kansasii; 0.25 µM (≈ 0.362 µg/mL) in the assay with Bacillus subtilis [6]; 0.25 µM (≈ 0.362 µg/mL) in [7]; 2 µM in assay [8]; more than 256 µM in the assay with Mycobacterium avium [9]. Further, the results for the MIC (in the assay on Mycobacterium avium [10]; in assay [11]; in assay [13]) were 64 µM (≈ 92.8 µg/mL), 64 µM (≈ 92.8 µg/mL) and 3 µM, respectively. Moreover, the BBC in [4] stood at 0.5 µM. In addition, the “fractional inhibitory concentration index (FICI)” value stood at 0.17 in assay [12] and 0.28 in [16]. In addition, the inhibition entry in assay [14] is “Active”. For the same compound, in assay [1], the MBEC is 64 µM. Besides, the Activity in assay [17] is listed as more than 95%.

Source of the values: ChEMBL document CHEMBL5346975, “Conjugation of Vancomycin with a Single Arginine Improves Efficacy against Mycobacteria by More Effective Peptidoglycan Targeting” (2023).
